# Measurements reported in patent US8481732B2 (Incyte Corporation, priority 2009, dated 2013).
# Target: T1, histamine H4 receptor (Homo sapiens, UniProt Q9H3N8)
# T1 construct: expressed in transfected cells; host or cells: HEK293SFM cells (membrane preparation)
# Experiment: H4 Membrane Binding Assay (3H-Histamine displacement)
# Settings: membranes of recombinant HEK293SFM cells, 10 nM 3H-Histamine, 1.5 hr at room temperature
# Outline: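 Membranes from HEK293SFM cells expressing human H4 (also human H1–H3, mouse H4), prepared in ice-cold 50 mM Tris-HCl pH 7.5. [3H]-histamine displacement, nonspecific binding defined with 1000× unlabeled ligand. Bound radioactivity separated on PEI-treated GF/B filters and measured by liquid scintillation counting.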
row,IC50 [nM],SMILES
1,36,"CN1CCN(c2nc(N)nc3cc(C(=O)N4CCc5c(cccc5OCc5cccc(C#N)c5)C4)ccc23)CC1 [Example 207, 3((2-(2-Amino-4-(4-methylpiperazin-1-yl)quinazoline-7-carbonyl)-1,2,3,4-tetrahydroisoquinolin-5-yloxy)methyl)benzonitrile]"
2,24,"COc1cccc(COc2cccc3c2CCN(C(=O)c2ccc4c(N5CCN(C)CC5)nc(N)nc4c2)C3)c1 [Example 208, (2-Amino-4-(4-methylpiperazin-1-yl)quinazolin-7-yl)(5-(3-methoxybenzyloxy)-3,4-dihydroisoquinolin-2(1H)-yl)methanone]"
3,36,"COC(=O)c1cccc(COc2cccc3c2CCN(C(=O)c2ccc4c(N5CCN(C)CC5)nc(N)nc4c2)C3)c1 [Example 209, Methyl 3-((2-(2-amino-4-(4-methylpiperazin-1-yl)quinazoline-7-carbonyl)-1,2,3,4-tetrahydroisoquinolin-5-yloxy)methyl)benzoate]"
4,41,"CN1CCN(c2nc(N)nc3cc(C(=O)N4CCc5c(cccc5OCc5ccc(C#N)cc5)C4)ccc23)CC1 [Example 210, 4-((2-(2-Amino-4-(4-methylpiperazin-1-yl)quinazoline-7-carbonyl)-1,2,3,4-tetrahydroisoquinolin-5-yloxy)methyl)benzonitrile]"
5,63,"COC(=O)c1ccc(COc2cccc3c2CCN(C(=O)c2ccc4c(N5CCN(C)CC5)nc(N)nc4c2)C3)cc1 [Example 211, Methyl 4-((2-(2-amino-4-(4-methylpiperazin-1-yl)quinazoline-7-carbonyl)-1,2,3,4-tetrahydroisoquinolin-5-yloxy)methyl)benzoate]"
